Test results as given in patent publication US11931347B2, “Method of screening for agents for differentiating stem cells” (MINERVA BIOTECHNOLOGIES CORPORATION, priority 2015, dated 2024).

Assays:
[1] = tested on: T47D breast cancer cells; test: cancer cell proliferation assay (Calcein live cell stain); type: cell-based, human; conditions: live cell Calcein stain, 96 hours (FIG. 113)
[2] = tested on: SK-OV-3 MUC1* positive ovarian cancer cells; test: cancer cell proliferation assay (Calcein); type: cell-based; conditions: 96 hours (FIG. 112)
Experimental: Small molecule inhibition of cancer cell proliferation studies were also performed on several cancer sub-types. […] The small molecules of the invention had the most robust effect on T47D breast cancer cells, which are highly positive for MUC1* growth factor receptor, and its activating ligands NME7AB and NME7-X1. […] For the cancer cell proliferation experiment cancer cells were plated at constant densities (6000 cells/well) into a 96-well White-walled/Clear-bottom Tissue Culture Treated plate (Corning Incorporated, Big Flats, N.Y.). Small molecule analogs are added at T=24 hours in media with 2% FBS. […] […] Calcein fluorescence (final concentration 0.5 uM) is used to assess cell viability. Cancer cell fluorescence is measured in a TECAN SAFIRE^2 spectrophotometer plate reader. The plate is then imaged using an Olympus IX71 fluorescence imaging microscope and montage of the resulting images are assembled using ImageJ.

[3] = tested on: OV-90 MUC1* negative ovarian cancer cells; test: cancer cell proliferation assay (Calcein); type: cell-based; conditions: 96 hours (FIG. 114)

Cc1sc2c(c1C)C(c1ccc(Cl)cc1)=N[C@@H](CC(=O)OC(C)(C)C)c1nnc(C)n1-2 [JQ1+, JQ1]
inhibition of growth of T47D cells [1]: inhibited growth
effect on growth of SK-OV-3 cells [2]: slight effect
effect on growth of OV-90 cells [3]: neither the compounds of the invention nor JQ1 or SU11274 had any apparent effect
